This passage reports Activity results from ChEMBL document CHEMBL2074328, “Up-regulation of transporters of the MRP family by drugs and toxins” (Toxicol Lett, 2001).

For data set [1], the target named is Multidrug resistance associated protein (Homo sapiens) (UniProt Q96QA9). Nature of the data set: (§1) TP_TRANSPORTER: RT-PCR in HepG2 cells. It is filed as functional, cell-based.
Data set [2] deals with T1, ATP-binding cassette sub-family C member 2 (Homo sapiens, UniProt Q92887). The data set is described as follows: TP_TRANSPORTER: Northern blot from HepG2 cells. It is filed as functional, cell-based.
In data set [3] the target is T2, ATP-binding cassette sub-family C member 2 (Rattus norvegicus, UniProt Q63120). Nature of the data set: TP_TRANSPORTER: Western blot, primary hepatocytes. The class given is functional, cell-based, Hepatocyte. In general terms: A western blot detects proteins with antibodies after separation by electrophoresis.
T2 sequence (Q63120 whole entry): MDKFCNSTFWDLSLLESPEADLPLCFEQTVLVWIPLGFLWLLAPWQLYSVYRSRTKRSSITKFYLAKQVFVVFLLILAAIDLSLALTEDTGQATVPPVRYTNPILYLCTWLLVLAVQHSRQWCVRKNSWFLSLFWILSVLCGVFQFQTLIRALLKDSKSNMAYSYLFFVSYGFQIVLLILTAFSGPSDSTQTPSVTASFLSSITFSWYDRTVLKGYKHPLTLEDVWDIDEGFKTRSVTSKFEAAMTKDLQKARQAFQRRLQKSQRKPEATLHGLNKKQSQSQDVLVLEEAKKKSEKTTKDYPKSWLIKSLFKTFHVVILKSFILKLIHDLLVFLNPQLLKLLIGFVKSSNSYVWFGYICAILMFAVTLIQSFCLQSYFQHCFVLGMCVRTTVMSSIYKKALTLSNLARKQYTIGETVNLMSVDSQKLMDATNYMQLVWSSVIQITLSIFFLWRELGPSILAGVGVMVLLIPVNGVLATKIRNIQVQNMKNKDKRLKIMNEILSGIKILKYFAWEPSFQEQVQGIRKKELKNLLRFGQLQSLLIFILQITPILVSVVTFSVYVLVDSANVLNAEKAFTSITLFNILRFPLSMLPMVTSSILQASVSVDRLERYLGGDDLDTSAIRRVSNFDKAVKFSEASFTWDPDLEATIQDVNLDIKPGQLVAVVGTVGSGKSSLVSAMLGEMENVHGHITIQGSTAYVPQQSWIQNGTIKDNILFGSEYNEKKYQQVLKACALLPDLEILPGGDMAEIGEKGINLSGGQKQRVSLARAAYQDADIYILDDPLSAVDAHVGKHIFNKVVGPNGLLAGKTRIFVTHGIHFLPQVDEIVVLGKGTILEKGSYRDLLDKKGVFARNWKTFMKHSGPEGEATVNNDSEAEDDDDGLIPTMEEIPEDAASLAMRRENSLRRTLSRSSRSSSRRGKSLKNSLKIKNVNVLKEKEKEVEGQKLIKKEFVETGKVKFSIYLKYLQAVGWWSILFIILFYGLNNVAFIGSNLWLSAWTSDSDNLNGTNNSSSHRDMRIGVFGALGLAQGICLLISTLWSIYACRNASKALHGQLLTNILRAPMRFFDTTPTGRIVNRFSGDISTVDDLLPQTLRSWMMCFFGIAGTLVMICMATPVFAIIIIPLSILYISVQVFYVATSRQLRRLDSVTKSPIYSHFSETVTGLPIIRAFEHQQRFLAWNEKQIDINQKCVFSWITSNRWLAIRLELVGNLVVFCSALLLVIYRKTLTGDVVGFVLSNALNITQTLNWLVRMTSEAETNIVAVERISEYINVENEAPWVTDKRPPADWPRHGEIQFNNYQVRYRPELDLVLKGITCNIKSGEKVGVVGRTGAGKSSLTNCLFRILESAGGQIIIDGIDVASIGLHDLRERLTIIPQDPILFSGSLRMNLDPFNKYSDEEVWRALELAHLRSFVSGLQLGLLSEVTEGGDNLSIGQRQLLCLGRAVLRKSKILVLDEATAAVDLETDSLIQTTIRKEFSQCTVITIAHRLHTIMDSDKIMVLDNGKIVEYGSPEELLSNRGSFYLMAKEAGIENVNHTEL
The target of data set [4] is T2, ATP-binding cassette sub-family C member 2. Nature of the data set: TP_TRANSPORTER: Northern blot from primary hepatocytes. It is filed as functional, cell-based, Hepatocyte.
Data set [5] has as its target ATP-binding cassette sub-family C member 5 (Homo sapiens, UniProt O15440). The description is as §1. The class given is functional, cell-based.
The target of data set [6] is T3, Multidrug resistance-associated protein 1 (Homo sapiens, UniProt P33527). Nature of the data set: TP_TRANSPORTER: Western blot, MCF-7 cells. The settings on record: mcf7. It is filed as functional, cell-based.
T3 sequence (P33527 whole entry): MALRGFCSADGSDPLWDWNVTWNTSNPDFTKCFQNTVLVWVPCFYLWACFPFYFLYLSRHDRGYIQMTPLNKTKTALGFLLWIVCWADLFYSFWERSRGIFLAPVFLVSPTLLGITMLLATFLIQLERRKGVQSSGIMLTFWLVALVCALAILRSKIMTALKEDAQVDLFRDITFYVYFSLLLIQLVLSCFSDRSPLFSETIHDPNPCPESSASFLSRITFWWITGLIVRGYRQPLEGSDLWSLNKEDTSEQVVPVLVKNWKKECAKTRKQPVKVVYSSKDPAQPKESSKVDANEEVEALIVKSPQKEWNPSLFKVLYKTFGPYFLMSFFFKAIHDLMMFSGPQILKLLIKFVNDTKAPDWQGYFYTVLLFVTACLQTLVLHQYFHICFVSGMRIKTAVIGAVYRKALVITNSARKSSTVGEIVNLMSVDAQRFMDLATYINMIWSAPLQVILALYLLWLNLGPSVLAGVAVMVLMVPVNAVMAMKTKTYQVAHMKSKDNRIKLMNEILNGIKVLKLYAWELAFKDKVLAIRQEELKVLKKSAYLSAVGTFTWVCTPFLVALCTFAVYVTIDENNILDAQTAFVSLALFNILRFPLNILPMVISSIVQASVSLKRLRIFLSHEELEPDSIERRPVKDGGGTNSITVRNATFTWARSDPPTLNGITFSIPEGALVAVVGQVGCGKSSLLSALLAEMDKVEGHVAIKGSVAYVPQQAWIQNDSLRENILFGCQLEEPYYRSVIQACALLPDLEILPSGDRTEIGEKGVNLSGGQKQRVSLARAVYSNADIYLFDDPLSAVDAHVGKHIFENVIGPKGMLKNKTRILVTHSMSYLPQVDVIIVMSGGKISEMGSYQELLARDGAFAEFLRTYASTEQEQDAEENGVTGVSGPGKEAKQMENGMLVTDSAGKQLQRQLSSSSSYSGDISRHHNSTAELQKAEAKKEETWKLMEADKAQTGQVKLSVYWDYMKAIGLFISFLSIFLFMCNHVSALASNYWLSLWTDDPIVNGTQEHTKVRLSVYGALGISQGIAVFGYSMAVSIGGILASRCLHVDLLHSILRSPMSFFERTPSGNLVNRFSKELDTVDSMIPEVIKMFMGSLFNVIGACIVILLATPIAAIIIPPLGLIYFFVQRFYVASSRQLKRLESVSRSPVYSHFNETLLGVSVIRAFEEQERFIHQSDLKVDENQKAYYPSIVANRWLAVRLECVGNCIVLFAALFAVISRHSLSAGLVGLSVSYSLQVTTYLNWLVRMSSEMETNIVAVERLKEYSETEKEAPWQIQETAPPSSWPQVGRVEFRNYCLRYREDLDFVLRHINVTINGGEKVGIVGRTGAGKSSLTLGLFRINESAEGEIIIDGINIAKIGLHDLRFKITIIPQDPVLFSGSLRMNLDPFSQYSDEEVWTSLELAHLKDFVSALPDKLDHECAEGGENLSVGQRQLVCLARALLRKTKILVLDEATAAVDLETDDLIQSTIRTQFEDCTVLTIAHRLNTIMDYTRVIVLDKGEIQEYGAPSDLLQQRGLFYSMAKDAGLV
The target of data set [7] is T3, Multidrug resistance-associated protein 1. The data set is described as follows: TP_TRANSPORTER: Northern blot from MCF-7 cells. It is filed as functional, cell-based. To be noted: mcf7.
The target of data set [8] is T1, ATP-binding cassette sub-family C member 2. Described as §1. The class given is functional, cell-based.

Chain of ATP-binding cassette sub-family C member 5 (O15440 whole entry): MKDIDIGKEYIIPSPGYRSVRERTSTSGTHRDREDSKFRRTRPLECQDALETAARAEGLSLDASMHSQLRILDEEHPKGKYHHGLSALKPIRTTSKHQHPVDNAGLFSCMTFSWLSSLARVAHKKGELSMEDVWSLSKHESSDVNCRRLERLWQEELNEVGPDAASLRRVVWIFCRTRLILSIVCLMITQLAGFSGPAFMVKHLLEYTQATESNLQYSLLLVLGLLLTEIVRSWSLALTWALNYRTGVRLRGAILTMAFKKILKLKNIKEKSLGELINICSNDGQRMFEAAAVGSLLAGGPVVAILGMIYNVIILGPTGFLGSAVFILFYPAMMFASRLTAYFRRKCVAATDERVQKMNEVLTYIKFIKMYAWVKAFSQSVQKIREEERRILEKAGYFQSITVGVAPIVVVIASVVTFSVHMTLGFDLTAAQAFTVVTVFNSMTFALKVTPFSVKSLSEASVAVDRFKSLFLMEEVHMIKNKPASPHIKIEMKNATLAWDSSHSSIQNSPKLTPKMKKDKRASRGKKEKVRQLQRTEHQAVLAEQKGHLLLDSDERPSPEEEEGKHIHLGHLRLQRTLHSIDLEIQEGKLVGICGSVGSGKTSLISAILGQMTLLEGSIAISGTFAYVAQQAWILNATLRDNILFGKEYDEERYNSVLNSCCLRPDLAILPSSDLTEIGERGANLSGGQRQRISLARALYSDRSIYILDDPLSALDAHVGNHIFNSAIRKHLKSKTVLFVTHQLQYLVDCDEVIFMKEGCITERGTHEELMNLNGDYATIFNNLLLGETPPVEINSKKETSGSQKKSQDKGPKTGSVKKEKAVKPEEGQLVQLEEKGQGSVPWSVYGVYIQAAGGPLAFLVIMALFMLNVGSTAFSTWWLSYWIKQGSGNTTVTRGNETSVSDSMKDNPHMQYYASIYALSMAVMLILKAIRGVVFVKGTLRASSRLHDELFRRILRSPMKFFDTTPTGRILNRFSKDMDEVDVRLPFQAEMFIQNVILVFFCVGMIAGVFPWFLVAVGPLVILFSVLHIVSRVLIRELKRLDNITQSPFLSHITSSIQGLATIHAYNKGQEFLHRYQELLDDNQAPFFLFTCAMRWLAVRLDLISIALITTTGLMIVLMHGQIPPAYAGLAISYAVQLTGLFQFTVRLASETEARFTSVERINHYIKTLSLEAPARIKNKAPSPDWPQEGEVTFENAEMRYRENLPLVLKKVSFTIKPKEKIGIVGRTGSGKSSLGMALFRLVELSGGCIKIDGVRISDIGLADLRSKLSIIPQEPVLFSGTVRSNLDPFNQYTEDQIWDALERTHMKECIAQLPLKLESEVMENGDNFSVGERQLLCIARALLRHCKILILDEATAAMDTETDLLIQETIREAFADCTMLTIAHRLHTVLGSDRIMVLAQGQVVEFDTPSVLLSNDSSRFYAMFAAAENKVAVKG

With `CC(=O)Nc1ccc2c(c1)Cc1ccccc1-2` [2-ACETYLAMINOFLUORENE], the Activity result in data set [1], in data set [2], in data set [3], in data set [4] and in data set [5] was “inducer [+]” throughout.

For `C[C@@H]1C[C@H]2[C@@H]3CCC4=CC(=O)C=C[C@]4(C)[C@@]3(F)[C@@H](O)C[C@]2(C)[C@@]1(O)C(=O)CO` [DEXAMETHASONE], the Activity entry in data set [3] and in data set [4] was “inducer [+]” in each case.

Turning to `CC(C)(C)c1cc(O)ccc1O` [E319], the Activity result in data set [6] and in data set [7] was “inducer [+]” throughout.

As to `CCC1(c2ccccc2)C(=O)NC(=O)NC1=O` [PHENOBARBITAL], in data set [2], the Activity entry is “inducer [+]”.

As to `CO[C@H]1/C=C/O[C@@]2(C)Oc3c(C)c(O)c4c(O)c(c(/C=N/N5CCN(C)CC5)c(O)c4c3C2=O)NC(=O)/C(C)=C\C=C\[C@H](C)[C@H](O)[C@@H](C)[C@@H](O)[C@@H](C)[C@H](OC(C)=O)[C@@H]1C` [RIFAMPIN], in data set [5], the Activity entry was “inducer [+]”.

As for `CC[C@]1(O)C[C@@H]2CN(CCc3c([nH]c4ccccc34)[C@@](C(=O)OC)(c3cc4c(cc3OC)N(C)[C@H]3[C@@](O)(C(=O)OC)[C@H](OC(C)=O)[C@]5(CC)C=CCN6CC[C@]43[C@@H]65)C2)C1` [VINBLASTINE], the Activity result in data set [6], in data set [3], in data set [4] and in data set [7] was “inducer [+]” each time.

As for CISPLATIN [listing 1 of 2 here], the Activity result in data set [3], in data set [4], in data set [8] and in data set [5] was “inducer [+]” throughout.

As to CISPLATIN [listing 2 of 2 here], the Activity entry in data set [1] is “inducer [+]”.
